From patent US20090317376A1, “Compositions And Methods For Lipo Modeling” (Georgetown University MEDICAL SCHOOL, priority 2005, published 2009)
Entries after “also recorded” stand apart in the source; their conditions may differ.

Tested on: 3T3-L1 preadipocytes
Test: Adipocyte differentiation / adipogenesis (Oil red-O staining, leptin and resistin ELISA)
Format: cell-based, murine
Experimental: 3T3-L1 preadipocytes are stimulated to differentiate to a rounded phenotype and accumulate lipids in the form of lipid droplets when treated with dexamethasone, isobutylmethylxanthine (IBMX), and insulin [54]. The 3T3-L1 cells are primed for differentiation by the incubation with IBMX and dexamethasone, and in some cells insulin, for 24 hrs, then, insulin is withdrawn and replaced with various concentrations of NPY (FIG. 5).
ELISA: NPY ELISA system are purchased from Penninsula Laboratories, bFGF, VEGF and mouse leptin ELISA kits from R&D systems, mouse adiponectin ELISA kit from Linco Research and catecholamine detection system—3CAT EIA from Diagnostic Systems Laboratories. The assays are performed according to the manufacturers' procedures.
Oil Red O staining: Oil Red O solution (0.36% Oil Red O solution in 60% isopropanol) is used to stain lipid droplets in mature adipocytes and paraffin embedded tissues (Chemicon Adipogenesis Assay kit).
1. Cell culture: 3T3-L1 preadipocyte cells, (gift from Dr. Lane,^34) were cultured in DMEM high glucose media with glutamine, 10% calf sera (Gemini Bioproducts), d-Biotin (8 μg/ml) and Pantothenate (8 μg/ml) (Sigma). SK-N-BE(2) neuroblastoma cells (ATCC) were cultured in EMEM/F12K with 10% fetal bovine sera (FBS). HMVEC endothelial cells (Cambrex) were cultured in endothelial cell growth media (Cambrex). All media was supplemented with 100 units/ml penicillin, 100 μg/ml streptomycin and […] amphotericin. 2. Proliferation assay: Cells were plated onto 96-well dishes, growth-arrested in serum-free media for 24 h, and then were treated with the desired factors for 24 h in the culture media supplemented with 0.25% FBS; 4 hr after treatment 0.5 μCi [^3H] thymidine was added to each well. After 24 h, cells were harvested in a 96-well harvester (Tomtec) and counted in a Betaplate Liquid Scintillation Counter (Wallac). 3. Co-culture: For mitogenic assay and expression studies, co-culture was performed in a Costar Transwell system. Cells were plated on 6-well plates or inserts with 0.4 μm Polyester membranes. At 30% confluence, the inserts were combined with wells containing other cells. Co-culture of neuroblastomas with endothelial cells (EC) were carried out in EC media and preadipocytes in preadipocyte growth media. After the respective treatment, the cells growing on the plates were harvested for RNA isolation. For the mitogenic assay, cells were first growth-arrested in serum-free media for 24 hr, then the inserts placed into the plates and cells treated with desired factors in 0.25% FBS. After 48 hr, the cells were counted with a Beckman Coulter Counter. In both co-culture models, media was collected for Leptin (R&D Systems), Resistin (R&D Systems), and NPY (Bachem) ELISA. 4. Real-time RT-PCR: RNA was isolated using Tri Reagent (Sigma) and cDNA synthesized by iScript cDNA synthesis kit (BioRad). ICycler iQ Detection System (BioRad) was used to perform Real Time PCR. cDNA was amplified for 40 cycles using TaqMan PCR Reagent Kit and pre-designed primers and fluorescein-labeled probes from Applied Biosystems, as previously described^16, according to the manufacturer's procedure. The results were analyzed using software provided by BioRad and expression levels calculated by the comparative CT method using β-actin as an endogenous reference gene, according to the Applied Biosystems' ABI PRISM 7700 User Bulletin #2. 5. TUNEL: TUNEL reaction was performed using In Situ Cell Detection Kit (Roche Diagnostic) and signal converted to visible light using AP-converter. The density of TUNEL positive cells will be measured using NIH ImageJ software (using a plugin written by Wayne Rasband). 6. ELISA: ELISA kits for: NPY (Bachem Laboratories), mouse Leptin, Corticosterone, and Resistin (R&D systems), rat/mouse Insulin and mouse Adiponectin (Linco Research), and mouse Osteocalcin (Biomedical Technologies, Inc.) were used. The assays were performed according to the manufacturers' procedures. 7. […]

Compound	block of NPY-induced leptin and resistin secretion and lipid filling (Y2R antagonist)	adipogenesis in cells not originally primed by insulin (NPY by itself)	leptin secretion (differentiated 3T3-L1 adipocytes)	differentiation into adipocytes (adipogenesis) (insulin preconditioned / primed 3T3-L1 cells, NPY 1×10-14 to 1×10^-8 M)	resistin secretion (preadipocytes primed for differentiation)	lipid deposition / lipid filling (Oil red-O staining) (primed 3T3-L1 cells, insulin replaced with NPY)
N=C(N)NCCC[C@H](NC(=O)CC1(CC(=O)N2CCN(C3c4ccccc4NC(=O)c4ccccc43)CC2)CCCC1)C(=O)NCCn1c(=O)n(-c2ccccc2)n(-c2ccccc2)c1=O (stereo partly drawn) [BIIE0246]	blocked	–	–	–	–	–
neuropeptide Y [NPY]	–	unable to stimulate adipogenesis	increases leptin secretion; also recorded: increased	stimulated differentiation into adipocytes; also recorded: stimulating adipogenesis	increased	markedly increased
